Drawing on ChEMBL document CHEMBL3991601, “The target landscape of clinical kinase drugs” (Science, 2017), this text covers Kd for 13 compounds.

Activity calls are given as the source filed them.

The target in assay [1] is Epidermal growth factor receptor (Homo sapiens, UniProt P00533).
Assay [2] deals with T1, Eukaryotic translation initiation factor 5B (Homo sapiens, UniProt O60841).
T1 sequence (O60841 whole entry): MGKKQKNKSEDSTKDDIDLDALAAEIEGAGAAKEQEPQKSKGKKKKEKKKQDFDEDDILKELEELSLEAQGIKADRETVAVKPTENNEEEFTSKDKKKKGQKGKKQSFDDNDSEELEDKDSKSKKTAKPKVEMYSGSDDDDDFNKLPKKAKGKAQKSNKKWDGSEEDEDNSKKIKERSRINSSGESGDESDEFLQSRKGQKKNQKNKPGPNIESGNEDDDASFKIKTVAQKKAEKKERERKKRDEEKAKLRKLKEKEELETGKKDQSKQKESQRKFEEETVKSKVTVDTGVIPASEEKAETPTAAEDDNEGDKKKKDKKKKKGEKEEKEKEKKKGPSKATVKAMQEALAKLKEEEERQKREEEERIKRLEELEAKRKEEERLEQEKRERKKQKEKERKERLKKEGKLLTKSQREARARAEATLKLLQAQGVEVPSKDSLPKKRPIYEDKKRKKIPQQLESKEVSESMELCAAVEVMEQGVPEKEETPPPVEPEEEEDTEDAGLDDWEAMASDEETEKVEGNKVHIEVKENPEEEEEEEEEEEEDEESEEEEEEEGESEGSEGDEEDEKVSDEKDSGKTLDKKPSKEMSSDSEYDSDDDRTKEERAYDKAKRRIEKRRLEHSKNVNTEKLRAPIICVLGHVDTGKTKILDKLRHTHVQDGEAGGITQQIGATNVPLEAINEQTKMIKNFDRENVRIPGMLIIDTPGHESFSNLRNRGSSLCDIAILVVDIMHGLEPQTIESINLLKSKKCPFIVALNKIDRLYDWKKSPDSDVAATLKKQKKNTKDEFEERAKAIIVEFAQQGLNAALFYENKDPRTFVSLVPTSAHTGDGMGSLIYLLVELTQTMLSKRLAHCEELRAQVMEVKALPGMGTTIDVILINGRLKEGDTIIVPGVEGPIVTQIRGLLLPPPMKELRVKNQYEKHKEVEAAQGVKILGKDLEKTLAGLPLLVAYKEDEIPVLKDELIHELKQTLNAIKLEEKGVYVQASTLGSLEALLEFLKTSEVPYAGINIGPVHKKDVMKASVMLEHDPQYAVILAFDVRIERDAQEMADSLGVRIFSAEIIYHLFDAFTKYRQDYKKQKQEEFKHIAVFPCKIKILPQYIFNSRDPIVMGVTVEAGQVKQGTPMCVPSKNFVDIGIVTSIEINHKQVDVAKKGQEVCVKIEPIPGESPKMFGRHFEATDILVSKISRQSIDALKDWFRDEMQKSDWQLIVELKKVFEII

The target of assay [3] is Mitogen-activated protein kinase 14 (Homo sapiens, UniProt Q16539).
Mitogen-activated protein kinase 14, sequence (Q16539 whole entry): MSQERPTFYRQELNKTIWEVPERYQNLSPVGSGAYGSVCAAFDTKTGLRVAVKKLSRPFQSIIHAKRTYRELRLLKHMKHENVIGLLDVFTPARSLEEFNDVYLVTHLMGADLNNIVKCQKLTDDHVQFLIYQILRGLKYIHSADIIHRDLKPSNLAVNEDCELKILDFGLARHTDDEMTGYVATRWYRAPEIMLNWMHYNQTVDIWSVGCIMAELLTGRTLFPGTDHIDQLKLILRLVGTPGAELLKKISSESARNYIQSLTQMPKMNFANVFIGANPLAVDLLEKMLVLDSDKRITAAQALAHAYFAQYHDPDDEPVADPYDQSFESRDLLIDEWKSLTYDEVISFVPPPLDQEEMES
For assay [4], the target named is Hepatocyte growth factor receptor (Homo sapiens, UniProt P08581).
Hepatocyte growth factor receptor, sequence (P08581 whole entry): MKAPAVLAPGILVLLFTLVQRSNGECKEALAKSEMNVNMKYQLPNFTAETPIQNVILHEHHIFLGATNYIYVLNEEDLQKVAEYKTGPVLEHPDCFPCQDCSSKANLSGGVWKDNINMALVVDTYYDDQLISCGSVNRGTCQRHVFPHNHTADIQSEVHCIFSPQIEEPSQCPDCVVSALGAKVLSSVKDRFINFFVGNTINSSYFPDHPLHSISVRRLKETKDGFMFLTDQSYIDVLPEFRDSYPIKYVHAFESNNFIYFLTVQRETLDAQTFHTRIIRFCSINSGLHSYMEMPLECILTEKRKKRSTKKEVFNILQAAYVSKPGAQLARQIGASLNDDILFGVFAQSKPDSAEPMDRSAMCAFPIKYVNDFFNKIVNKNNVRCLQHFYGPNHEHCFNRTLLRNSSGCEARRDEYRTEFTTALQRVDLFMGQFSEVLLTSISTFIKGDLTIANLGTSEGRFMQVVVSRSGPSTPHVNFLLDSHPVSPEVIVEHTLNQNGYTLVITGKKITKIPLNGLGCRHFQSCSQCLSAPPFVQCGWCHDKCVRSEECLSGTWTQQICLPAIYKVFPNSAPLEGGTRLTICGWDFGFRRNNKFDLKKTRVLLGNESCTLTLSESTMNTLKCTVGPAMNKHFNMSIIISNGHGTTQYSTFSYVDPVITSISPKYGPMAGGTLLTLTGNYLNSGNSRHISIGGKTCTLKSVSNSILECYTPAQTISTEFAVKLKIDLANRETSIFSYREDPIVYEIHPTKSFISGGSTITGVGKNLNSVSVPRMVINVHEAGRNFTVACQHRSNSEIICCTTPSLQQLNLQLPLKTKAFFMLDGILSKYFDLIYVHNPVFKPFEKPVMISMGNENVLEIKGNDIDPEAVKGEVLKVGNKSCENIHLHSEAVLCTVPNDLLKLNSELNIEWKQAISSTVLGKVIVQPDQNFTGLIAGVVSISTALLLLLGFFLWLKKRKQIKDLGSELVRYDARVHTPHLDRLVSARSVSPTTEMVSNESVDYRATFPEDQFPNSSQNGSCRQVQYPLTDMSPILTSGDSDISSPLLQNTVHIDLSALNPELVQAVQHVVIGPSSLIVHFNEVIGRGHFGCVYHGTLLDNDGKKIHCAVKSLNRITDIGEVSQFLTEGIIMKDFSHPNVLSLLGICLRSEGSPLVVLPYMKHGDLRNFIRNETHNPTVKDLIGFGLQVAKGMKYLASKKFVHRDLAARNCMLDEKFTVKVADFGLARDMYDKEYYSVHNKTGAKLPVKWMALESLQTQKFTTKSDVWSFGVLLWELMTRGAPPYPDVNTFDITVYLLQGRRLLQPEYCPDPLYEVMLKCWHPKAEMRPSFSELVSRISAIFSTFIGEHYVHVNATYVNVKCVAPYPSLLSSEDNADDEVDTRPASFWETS
The target in assay [5] is Myosin-10 (Homo sapiens, UniProt P35580).
Myosin-10, sequence (P35580 whole entry): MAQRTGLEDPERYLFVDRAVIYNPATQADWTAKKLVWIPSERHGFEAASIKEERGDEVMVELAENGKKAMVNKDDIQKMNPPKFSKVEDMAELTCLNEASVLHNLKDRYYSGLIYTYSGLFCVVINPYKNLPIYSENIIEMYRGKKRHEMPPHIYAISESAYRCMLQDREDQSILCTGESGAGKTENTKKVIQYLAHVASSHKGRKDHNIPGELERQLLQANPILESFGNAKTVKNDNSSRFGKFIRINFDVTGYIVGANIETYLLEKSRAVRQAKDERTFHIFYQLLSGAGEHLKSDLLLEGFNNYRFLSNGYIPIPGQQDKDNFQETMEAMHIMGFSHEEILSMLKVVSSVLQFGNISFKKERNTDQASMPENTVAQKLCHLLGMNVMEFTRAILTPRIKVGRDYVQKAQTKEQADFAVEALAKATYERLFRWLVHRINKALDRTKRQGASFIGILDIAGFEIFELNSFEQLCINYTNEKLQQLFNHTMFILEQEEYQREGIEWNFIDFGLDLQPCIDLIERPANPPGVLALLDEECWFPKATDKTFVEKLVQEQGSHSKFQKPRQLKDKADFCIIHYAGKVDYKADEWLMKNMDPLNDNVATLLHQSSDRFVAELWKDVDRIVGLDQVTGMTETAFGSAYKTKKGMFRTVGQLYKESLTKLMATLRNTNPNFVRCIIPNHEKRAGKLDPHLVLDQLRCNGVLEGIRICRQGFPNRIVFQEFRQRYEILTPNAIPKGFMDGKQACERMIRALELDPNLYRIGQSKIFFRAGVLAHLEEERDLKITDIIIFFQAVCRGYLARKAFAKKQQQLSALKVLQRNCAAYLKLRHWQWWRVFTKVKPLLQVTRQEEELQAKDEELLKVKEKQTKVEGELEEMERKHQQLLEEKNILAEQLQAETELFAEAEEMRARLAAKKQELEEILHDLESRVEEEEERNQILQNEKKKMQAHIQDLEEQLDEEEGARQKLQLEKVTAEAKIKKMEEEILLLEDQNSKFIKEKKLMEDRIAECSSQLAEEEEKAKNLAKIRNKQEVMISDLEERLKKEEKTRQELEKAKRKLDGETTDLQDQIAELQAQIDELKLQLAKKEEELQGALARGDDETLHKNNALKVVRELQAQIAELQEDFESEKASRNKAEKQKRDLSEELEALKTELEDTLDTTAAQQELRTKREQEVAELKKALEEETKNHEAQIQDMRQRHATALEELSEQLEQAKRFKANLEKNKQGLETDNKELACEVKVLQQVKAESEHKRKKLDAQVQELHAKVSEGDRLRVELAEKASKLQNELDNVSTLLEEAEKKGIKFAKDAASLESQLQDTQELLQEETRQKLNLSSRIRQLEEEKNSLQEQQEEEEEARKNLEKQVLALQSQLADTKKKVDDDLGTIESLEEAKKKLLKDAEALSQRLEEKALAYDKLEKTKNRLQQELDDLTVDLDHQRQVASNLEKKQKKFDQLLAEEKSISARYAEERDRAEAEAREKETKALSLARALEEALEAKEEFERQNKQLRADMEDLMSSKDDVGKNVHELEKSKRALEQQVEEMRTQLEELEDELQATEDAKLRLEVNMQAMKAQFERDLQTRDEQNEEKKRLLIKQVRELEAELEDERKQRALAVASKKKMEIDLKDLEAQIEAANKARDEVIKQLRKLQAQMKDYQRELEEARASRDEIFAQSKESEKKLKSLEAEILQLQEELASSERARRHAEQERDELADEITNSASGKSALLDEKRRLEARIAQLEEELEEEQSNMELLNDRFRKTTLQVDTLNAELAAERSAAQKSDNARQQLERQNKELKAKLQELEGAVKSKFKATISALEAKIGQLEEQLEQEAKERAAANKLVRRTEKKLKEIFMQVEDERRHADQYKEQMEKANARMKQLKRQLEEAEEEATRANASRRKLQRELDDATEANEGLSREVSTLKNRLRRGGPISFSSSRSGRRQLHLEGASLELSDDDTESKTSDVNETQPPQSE
Assay [6] has as its target Obg-like ATPase 1 (Homo sapiens, UniProt Q9NTK5).
For assay [7], the target named is Serine/threonine-protein kinase PLK1 (Homo sapiens, UniProt P53350).
The target in assay [8] is T2, Isoleucine--tRNA ligase, mitochondrial (Homo sapiens, UniProt Q9NSE4).
T2 sequence (Q9NSE4 whole entry): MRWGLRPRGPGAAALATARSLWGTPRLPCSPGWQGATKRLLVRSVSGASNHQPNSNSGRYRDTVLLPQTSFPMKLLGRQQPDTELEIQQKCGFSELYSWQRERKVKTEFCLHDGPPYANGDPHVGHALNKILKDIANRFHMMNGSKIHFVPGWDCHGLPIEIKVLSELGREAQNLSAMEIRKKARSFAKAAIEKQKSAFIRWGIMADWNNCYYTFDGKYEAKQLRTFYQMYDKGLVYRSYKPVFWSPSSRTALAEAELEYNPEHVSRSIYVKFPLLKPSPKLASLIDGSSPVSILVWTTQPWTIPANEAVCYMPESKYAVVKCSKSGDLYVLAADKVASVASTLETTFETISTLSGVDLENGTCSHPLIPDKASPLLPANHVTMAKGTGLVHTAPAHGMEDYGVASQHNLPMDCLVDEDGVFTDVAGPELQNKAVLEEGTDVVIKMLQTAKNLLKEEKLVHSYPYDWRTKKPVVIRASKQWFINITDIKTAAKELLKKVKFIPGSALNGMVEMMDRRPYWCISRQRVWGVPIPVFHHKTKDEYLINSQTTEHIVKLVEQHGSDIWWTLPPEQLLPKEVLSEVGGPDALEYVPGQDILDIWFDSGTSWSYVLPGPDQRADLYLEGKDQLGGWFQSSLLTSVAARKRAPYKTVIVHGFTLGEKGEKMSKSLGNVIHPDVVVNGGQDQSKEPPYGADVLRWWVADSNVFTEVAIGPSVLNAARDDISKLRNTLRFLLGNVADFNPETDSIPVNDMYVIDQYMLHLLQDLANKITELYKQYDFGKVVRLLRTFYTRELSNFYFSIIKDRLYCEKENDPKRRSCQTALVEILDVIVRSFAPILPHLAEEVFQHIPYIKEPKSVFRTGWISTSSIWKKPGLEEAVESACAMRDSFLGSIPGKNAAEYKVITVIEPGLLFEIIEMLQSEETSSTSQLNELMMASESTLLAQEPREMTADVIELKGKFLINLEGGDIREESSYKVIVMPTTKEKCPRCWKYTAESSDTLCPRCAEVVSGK

Assay [9] addresses Serine/threonine-protein kinase 24 (Homo sapiens, UniProt Q9Y6E0).
Assay [10] concerns the target Misshapen-like kinase 1 (Homo sapiens, UniProt Q8N4C8).
Also: in the data inactive means no Kd found up to 30 µM.

Obg-like ATPase 1, sequence (Q9NTK5 whole entry, looked up): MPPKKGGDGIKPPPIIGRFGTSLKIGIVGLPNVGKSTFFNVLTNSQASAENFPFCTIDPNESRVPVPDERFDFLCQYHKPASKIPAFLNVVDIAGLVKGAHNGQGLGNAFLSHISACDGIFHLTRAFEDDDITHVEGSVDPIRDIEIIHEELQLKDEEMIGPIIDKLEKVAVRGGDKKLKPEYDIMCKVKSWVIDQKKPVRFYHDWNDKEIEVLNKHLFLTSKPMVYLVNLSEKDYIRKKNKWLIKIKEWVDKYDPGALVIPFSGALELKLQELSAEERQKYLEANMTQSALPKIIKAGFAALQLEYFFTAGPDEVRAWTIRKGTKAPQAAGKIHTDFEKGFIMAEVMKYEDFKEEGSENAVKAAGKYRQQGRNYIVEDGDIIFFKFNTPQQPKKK
Serine/threonine-protein kinase 24, sequence (Q9Y6E0 whole entry): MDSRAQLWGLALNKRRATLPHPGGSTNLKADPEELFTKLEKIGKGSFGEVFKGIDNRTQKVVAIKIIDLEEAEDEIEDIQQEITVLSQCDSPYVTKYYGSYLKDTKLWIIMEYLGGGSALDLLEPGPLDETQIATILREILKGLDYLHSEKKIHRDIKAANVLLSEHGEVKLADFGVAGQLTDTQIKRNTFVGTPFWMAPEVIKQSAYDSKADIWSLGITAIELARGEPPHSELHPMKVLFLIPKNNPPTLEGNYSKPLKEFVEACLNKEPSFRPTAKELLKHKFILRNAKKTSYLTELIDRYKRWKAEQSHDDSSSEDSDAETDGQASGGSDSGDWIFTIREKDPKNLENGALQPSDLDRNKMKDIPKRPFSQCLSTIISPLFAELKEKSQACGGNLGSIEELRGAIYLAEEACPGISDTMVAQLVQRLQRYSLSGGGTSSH

For `CO[C@H]1C[C@@H]2CC[C@@H](C)[C@@](O)(O2)C(=O)C(=O)N2CCCC[C@H]2C(=O)O[C@H]([C@H](C)C[C@@H]2CC[C@@H](OCCO)[C@H](OC)C2)CC(=O)[C@H](C)/C=C(\C)[C@@H](O)[C@@H](OC)C(=O)[C@H](C)C[C@H](C)/C=C/C=C/C=C/1C` [EVEROLIMUS], the Kd in assay [1], in assay [2], in [3], in [4], in assay [5] and in assay [6] was > 30 µM (inactive) in each case. Moreover, the Kd in [7] is > 30 µM (inactive).
As for `CC(C)Nc1cc(-c2c[nH]c(C(=O)N[C@H](CO)c3cccc(Cl)c3)c2)c(Cl)cn1` [ULIXERTINIB], the Kd in assay [1], in [8], in assay [3], in [4], in [5] and in assay [7] was > 30 µM (inactive) each time. Further, in [9], the Kd was > 30 µM (inactive).
In the case of `COc1cc(CCc2cc(NC(=O)c3ccc(N4C[C@@H](C)N[C@@H](C)C4)cc3)n[nH]2)cc(OC)c1` [AZD-4547], the Kd in assay [1], in assay [2], in assay [3], in assay [4], in assay [5] and in assay [7] was > 30 µM (inactive) each time. Besides, the Kd in assay [9] is > 30 µM (inactive).
As for `Cn1cc(-c2ccc3nnc(C(F)(F)c4ccc5ncccc5c4)n3n2)cn1` [JNJ-38877605], the Kd was > 30 µM (inactive) in assay [1]; > 30 µM (inactive) in assay [2]; > 30 µM (inactive) in assay [3]; 0.002 µM (active) in [4]; > 30 µM (inactive) in assay [5]; > 30 µM (inactive) in assay [7].
Turning to `CNC(=O)c1cc(Oc2ccc(NC(=O)Nc3ccc(Cl)c(C(F)(F)F)c3)c(F)c2)ccn1` [REGORAFENIB], the Kd in assay [1] was > 30 µM (inactive); in [2], > 30 µM (inactive); in [8], > 30 µM (inactive); in assay [3] it was 0.705 µM (active); in assay [4] it was > 30 µM (inactive); in [5], > 30 µM (inactive). Moreover, the Kd in [6], in assay [7] and in [9] was > 30 µM (inactive) each time.
As for `N[C@@H]1CCCN(c2c(/C=C3\SC(=O)NC3=O)cccc2-c2ccccc2)C1`, the Kd in assay [1], in assay [2], in assay [8], in [3], in [4] and in assay [5] was > 30 µM (inactive) in each case. Moreover, the Kd in assay [6], in [7] and in assay [9] was > 30 µM (inactive) throughout.
Regarding `O=C(O)[C@]1(Cc2cccc(Nc3nccs3)n2)CC[C@@H](Oc2cccc(Cl)c2F)CC1` [MK-5108], the Kd in assay [1], in [2], in assay [8], in assay [3], in [4] and in assay [10] was > 30 µM (inactive) in each case. Moreover, the Kd in assay [5], in assay [6] and in assay [9] was > 30 µM (inactive) each time.
With `CCn1c(=O)c(-c2cc[nH]n2)cc2c(C)nc(N)nc21` [VOXTALISIB], the Kd in assay [1], in assay [2], in assay [8], in assay [5], in assay [6] and in [7] was > 30 µM (inactive) each time. Besides, the Kd in assay [9] is > 30 µM (inactive).
With `CN1CCC(CNc2ccc3ncc(-c4cccc(OC(F)(F)F)c4)n3n2)CC1` [SGI-1776], the Kd in assay [1], in assay [8], in assay [3], in assay [4], in assay [10] and in assay [5] was > 30 µM (inactive) in each case. The Kd in assay [6], in [7] and in [9] was > 30 µM (inactive) each time.
Turning to `COC(=O)N[C@@H](C)CNc1nccc(-c2cn(C(C)C)nc2-c2cc(Cl)cc(NS(C)(=O)=O)c2F)n1` [ENCORAFENIB], the Kd in assay [1], in assay [2], in [8], in [3], in [4] and in [10] was > 30 µM (inactive) each time. Besides, the Kd in assay [5], in assay [6] and in [9] was > 30 µM (inactive) each time.
As for `O=C(Nc1ccc(-c2ccnc(Nc3ccc(N4CCOCC4)cc3)n2)cc1)C1CCCN1` (centres undefined) [XL-019], the Kd in assay [1], in [2], in assay [3], in assay [4], in assay [6] and in assay [7] was > 30 µM (inactive) in each case. Further, in assay [9], the Kd is > 30 µM (inactive).
Regarding `CC(=O)Nc1cccc(-n2c(=O)n(C3CC3)c(=O)c3c(Nc4ccc(I)cc4F)n(C)c(=O)c(C)c32)c1` [TRAMETINIB], the Kd in assay [1], in assay [2], in [8], in [3], in [4] and in [10] was > 30 µM (inactive) each time. The Kd in [5], in assay [6], in assay [7] and in assay [9] was > 30 µM (inactive) throughout.
For the compound `COCCNCc1ccc(-c2cc3nccc(Oc4ccc(NC(=S)NC(=O)Cc5ccc(F)cc5)cc4F)c3s2)nc1` [GLESATINIB], the Kd in assay [1], in assay [2], in [8], in assay [3], in assay [5] and in [6] was > 30 µM (inactive) throughout. For the same compound, the Kd in assay [7] and in [9] was > 30 µM (inactive) in each case.

What is called Kd is a measure of binding affinity in units of concentration.
